# From PubChem BioAssay (NCI)
#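 A five-concentration, 48-hour dose response in 96-well plates underlies each endpoint, interpolated linearly between surrounding concentrations. The concentration for full growth arrest is given as TGI.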
# Assays:
# Experiment in all cases: DTP human tumour cell line panel, 48 h
# 786-0 renal = test system: 786-0 renal
# OVCAR-8 ovarian = test system: OVCAR-8 ovarian
# MDA-MB-231 breast = test system: MDA-MB-231 breast
# SK-MEL-28 melanoma = test system: SK-MEL-28 melanoma
# A549 NSCLC = test system: A549 NSCLC
# MALME-3M melanoma = test system: MALME-3M melanoma
# T-47D breast = test system: T-47D breast
# KM12 colon = test system: KM12 colon
# IGROV1 ovarian = test system: IGROV1 ovarian
# MCF7 breast = test system: MCF7 breast
# SK-OV-3 ovarian = test system: SK-OV-3 ovarian
# LOX IMVI melanoma = test system: LOX IMVI melanoma
# CAKI-1 renal = test system: CAKI-1 renal
# ACHN renal = test system: ACHN renal
# HCT-15 colon = test system: HCT-15 colon
# CCRF-CEM leukemia = test system: CCRF-CEM leukemia
# BT-549 breast = test system: BT-549 breast
# NCI-H23 lung = test system: NCI-H23 lung
# SN12C renal = test system: SN12C renal
# HCC-2998 colon = test system: HCC-2998 colon
# RXF 393 renal = test system: RXF 393 renal
# HOP-62 NSCLC = test system: HOP-62 NSCLC
# SF-268 CNS = test system: SF-268 CNS
# OVCAR-3 ovarian = test system: OVCAR-3 ovarian
# UO-31 renal = test system: UO-31 renal
# U251 CNS = test system: U251 CNS
# TK-10 renal = test system: TK-10 renal
# HCT-116 colon = test system: HCT-116 colon
# COLO 205 colon = test system: COLO 205 colon
# SR leukemia = test system: SR leukemia
# HT29 colon = test system: HT29 colon
# HS 578T breast = test system: HS 578T breast
# DU-145 prostate = test system: DU-145 prostate
# NCI-H226 lung = test system: NCI-H226 lung
# SF-295 CNS = test system: SF-295 CNS
# SK-MEL-2 melanoma = test system: SK-MEL-2 melanoma
# NCI-H460 lung = test system: NCI-H460 lung
# SW-620 colon = test system: SW-620 colon
# SNB-75 CNS = test system: SNB-75 CNS
# SNB-19 CNS = test system: SNB-19 CNS
# SF-539 CNS = test system: SF-539 CNS
# MDA-MB-435 = test system: MDA-MB-435
# RPMI-8226 leukemia = test system: RPMI-8226 leukemia
# A498 renal = test system: A498 renal
# HL-60(TB) leukemia = test system: HL-60(TB) leukemia
# PC-3 prostate = test system: PC-3 prostate
# OVCAR-4 ovarian = test system: OVCAR-4 ovarian
# UACC-62 melanoma = test system: UACC-62 melanoma
# OVCAR-5 ovarian = test system: OVCAR-5 ovarian
# EKVX NSCLC = test system: EKVX NSCLC
# MOLT-4 leukemia = test system: MOLT-4 leukemia
# HOP-92 NSCLC = test system: HOP-92 NSCLC
# K-562 leukemia = test system: K-562 leukemia
# NCI/ADR-RES ovarian = test system: NCI/ADR-RES ovarian
# MDA-N = test system: MDA-N
# UACC-257 melanoma = test system: UACC-257 melanoma
# NCI-H522 lung = test system: NCI-H522 lung
# SK-MEL-5 melanoma = test system: SK-MEL-5 melanoma
# LXFL 529 NSCLC = test system: LXFL 529 NSCLC
# SNB-78 CNS = test system: SNB-78 CNS
# M14 melanoma = test system: M14 melanoma
# DMS 114 small cell lung = test system: DMS 114 small cell lung
# KM20L2 colon = test system: KM20L2 colon
# M19-MEL melanoma = test system: M19-MEL melanoma
structure (smiles),measurement,setting,value
COc1c(C(=O)O)cccc1-c1cccc(C(=O)NCCN(CCNC(=O)c2cccc(-c3cccc(C(=O)O)c3OC)c2OC)CCNC(=O)c2cccc(-c3cccc(C(=O)O)c3OC)c2OC)c1OC,TGI,786-0 renal,> 100 µM
same,TGI,OVCAR-8 ovarian,> 100 µM
same,TGI,MDA-MB-231 breast,> 100 µM
same,TGI,SK-MEL-28 melanoma,> 100 µM
same,TGI,A549 NSCLC,> 100 µM
same,TGI,MALME-3M melanoma,88.1 µM
same,TGI,T-47D breast,> 100 µM
same,TGI,KM12 colon,> 100 µM
same,TGI,IGROV1 ovarian,> 100 µM
same,TGI,MCF7 breast,> 100 µM
same,TGI,SK-OV-3 ovarian,> 100 µM
same,TGI,LOX IMVI melanoma,> 100 µM
same,TGI,CAKI-1 renal,> 100 µM
same,TGI,ACHN renal,> 100 µM
same,TGI,HCT-15 colon,> 100 µM
same,TGI,CCRF-CEM leukemia,> 100 µM
same,TGI,BT-549 breast,> 100 µM
same,TGI,NCI-H23 lung,> 100 µM
same,TGI,SN12C renal,89.9 µM
same,TGI,HCC-2998 colon,79 µM
same,TGI,RXF 393 renal,> 100 µM
same,TGI,HOP-62 NSCLC,> 100 µM
same,TGI,SF-268 CNS,> 100 µM
same,TGI,OVCAR-3 ovarian,64.6 µM
same,TGI,UO-31 renal,> 100 µM
same,TGI,U251 CNS,> 100 µM
same,TGI,TK-10 renal,> 100 µM
same,TGI,HCT-116 colon,> 100 µM
same,TGI,COLO 205 colon,62.9 µM
same,TGI,SR leukemia,44.1 µM
same,TGI,HT29 colon,> 100 µM
same,TGI,HS 578T breast,81.1 µM
same,TGI,DU-145 prostate,> 100 µM
same,TGI,NCI-H226 lung,> 100 µM
same,TGI,SF-295 CNS,> 100 µM
same,TGI,SK-MEL-2 melanoma,> 100 µM
same,TGI,NCI-H460 lung,> 100 µM
same,TGI,SW-620 colon,> 100 µM
same,TGI,SNB-75 CNS,> 100 µM
same,TGI,SNB-19 CNS,> 100 µM
same,TGI,SF-539 CNS,> 100 µM
same,TGI,MDA-MB-435,34.3 µM
same,TGI,RPMI-8226 leukemia,65.2 µM
same,TGI,A498 renal,96.2 µM
same,TGI,HL-60(TB) leukemia,65.4 µM
same,TGI,PC-3 prostate,> 100 µM
same,TGI,OVCAR-4 ovarian,> 100 µM
same,TGI,UACC-62 melanoma,89.7 µM
same,TGI,OVCAR-5 ovarian,> 100 µM
same,TGI,EKVX NSCLC,> 100 µM
same,TGI,MOLT-4 leukemia,> 100 µM
same,TGI,HOP-92 NSCLC,> 100 µM
same,TGI,K-562 leukemia,> 100 µM
same,TGI,NCI/ADR-RES ovarian,> 100 µM
same,TGI,MDA-N,23.8 µM
same,TGI,UACC-257 melanoma,> 100 µM
same,TGI,NCI-H522 lung,75.8 µM
same,TGI,SK-MEL-5 melanoma,37.6 µM
COC1CCC(OS(C)(=O)=O)CO1 (stereo not drawn),TGI,LXFL 529 NSCLC,> 100 µM
same,TGI,SK-MEL-28 melanoma,> 100 µM
same,TGI,SNB-78 CNS,> 100 µM
same,TGI,MALME-3M melanoma,> 100 µM
same,TGI,KM12 colon,> 100 µM
same,TGI,IGROV1 ovarian,> 100 µM
same,TGI,SK-OV-3 ovarian,> 100 µM
same,TGI,M14 melanoma,> 100 µM
same,TGI,ACHN renal,> 100 µM
same,TGI,CCRF-CEM leukemia,91.7 µM
same,TGI,NCI-H23 lung,> 100 µM
same,TGI,RXF 393 renal,> 100 µM
same,TGI,HOP-62 NSCLC,> 100 µM
same,TGI,SF-268 CNS,> 100 µM
same,TGI,OVCAR-3 ovarian,> 100 µM
same,TGI,UO-31 renal,> 100 µM
same,TGI,U251 CNS,> 100 µM
same,TGI,DMS 114 small cell lung,> 100 µM
same,TGI,HCT-116 colon,> 100 µM
same,TGI,COLO 205 colon,> 100 µM
same,TGI,SR leukemia,> 100 µM
same,TGI,HT29 colon,> 100 µM
same,TGI,SF-295 CNS,> 100 µM
same,TGI,KM20L2 colon,> 100 µM
same,TGI,SK-MEL-2 melanoma,> 100 µM
same,TGI,NCI-H460 lung,> 100 µM
same,TGI,SNB-75 CNS,> 100 µM
same,TGI,SNB-19 CNS,> 100 µM
same,TGI,SF-539 CNS,> 100 µM
same,TGI,RPMI-8226 leukemia,98.2 µM
same,TGI,A498 renal,> 100 µM
same,TGI,HL-60(TB) leukemia,> 100 µM
same,TGI,OVCAR-4 ovarian,> 100 µM
same,TGI,UACC-62 melanoma,> 100 µM
same,TGI,OVCAR-5 ovarian,> 100 µM
same,TGI,MOLT-4 leukemia,> 100 µM
same,TGI,HOP-92 NSCLC,> 100 µM
same,TGI,K-562 leukemia,> 100 µM
same,TGI,M19-MEL melanoma,> 100 µM
same,TGI,UACC-257 melanoma,> 100 µM
same,TGI,NCI-H522 lung,> 100 µM
O=C1C=CC(=O)N1c1ccc2c(c1)Cc1cc(NC(=O)C(F)(F)F)ccc1-2,TGI,786-0 renal,13 µM
same,TGI,OVCAR-8 ovarian,34.6 µM
same,TGI,MDA-MB-231 breast,32.3 µM
same,TGI,SK-MEL-28 melanoma,34.4 µM
same,TGI,A549 NSCLC,34.5 µM
same,TGI,MALME-3M melanoma,40.1 µM
same,TGI,T-47D breast,53.2 µM
same,TGI,KM12 colon,40.6 µM
same,TGI,IGROV1 ovarian,32.3 µM
same,TGI,MCF7 breast,34.4 µM
same,TGI,SK-OV-3 ovarian,> 100 µM
same,TGI,LOX IMVI melanoma,32.7 µM
same,TGI,CAKI-1 renal,32.7 µM
same,TGI,M14 melanoma,44 µM
same,TGI,ACHN renal,16.4 µM
same,TGI,HCT-15 colon,26.9 µM
same,TGI,CCRF-CEM leukemia,16.9 µM
same,TGI,BT-549 breast,31.6 µM
same,TGI,NCI-H23 lung,32.2 µM
same,TGI,SN12C renal,32.1 µM
same,TGI,HCC-2998 colon,> 58.9 µM
same,TGI,RXF 393 renal,23.7 µM
same,TGI,HOP-62 NSCLC,50.7 µM
same,TGI,SF-268 CNS,39.7 µM
same,TGI,OVCAR-3 ovarian,31.2 µM
same,TGI,UO-31 renal,28.4 µM
same,TGI,U251 CNS,34 µM
same,TGI,TK-10 renal,7.75 µM
same,TGI,HCT-116 colon,22.6 µM
same,TGI,COLO 205 colon,26 µM
same,TGI,SR leukemia,6.44 µM
same,TGI,HT29 colon,25.5 µM
same,TGI,HS 578T breast,51.9 µM
same,TGI,DU-145 prostate,30.5 µM
same,TGI,NCI-H226 lung,17.6 µM
same,TGI,SF-295 CNS,> 100 µM
same,TGI,SK-MEL-2 melanoma,34.2 µM
same,TGI,NCI-H460 lung,> 100 µM
same,TGI,SW-620 colon,25.8 µM
same,TGI,SNB-75 CNS,31.3 µM
same,TGI,SNB-19 CNS,> 65.5 µM
same,TGI,SF-539 CNS,32.8 µM
same,TGI,MDA-MB-435,31.5 µM
same,TGI,RPMI-8226 leukemia,14.3 µM
same,TGI,A498 renal,48.4 µM
same,TGI,HL-60(TB) leukemia,38.1 µM
same,TGI,PC-3 prostate,33.1 µM
same,TGI,OVCAR-4 ovarian,31.2 µM
same,TGI,UACC-62 melanoma,30.7 µM
same,TGI,OVCAR-5 ovarian,31.8 µM
same,TGI,EKVX NSCLC,29.3 µM
same,TGI,MOLT-4 leukemia,> 100 µM
same,TGI,HOP-92 NSCLC,33.1 µM
same,TGI,K-562 leukemia,59.6 µM
same,TGI,NCI/ADR-RES ovarian,> 75.7 µM
same,TGI,MDA-N,32.5 µM
same,TGI,UACC-257 melanoma,35.8 µM
same,TGI,NCI-H522 lung,11.3 µM
same,TGI,SK-MEL-5 melanoma,> 100 µM
